The values below come from patent publication EP2196465A1, “(3-oxo)pyridazin-4-ylurea derivatives as PDE4 inhibitors” (Almirall, S.A., priority 2008, dated 2010).

The target in this test is recombinant PDE4 enzyme. Put plainly: PDE4 [3H] cAMP Scintillation Proximity Assay (SPA). It counts as biochemical. The conditions noted are these: inhibition of PDE4; 30 nM [3H] cAMP, 1 hr at room temperature, yeast extract of recombinant PDE4 enzyme. As to the method:
Measurement of Phosphodiesterase Activity was done using a [3H] cAMP Scintillation Proximity Assay (SPA) (GE Healthcare). Compounds to be tested were disolved in DMSO at a stock concentration of 1mM and serial dilutions were prepared in 50% DMSO to determine IC50s.
The reactions were conducted in 96-well plates (Corning, Ref.3604) at room temperature, in 0.1 ml of reaction buffer containing (final concentrations): 50 mM Tris-HCl, pH 7.5, 8.3 mM MgCl2, 1.7 mM EGTA, 30 nM [3H] cAMP (approximately 150000 dpm/well) with or without the inhibitors. The reaction was initiated by adding yeast extract of recombinant PDE4 enzyme.
Plates were shaken for 1 hr at room temperature and the incubation was terminated by adding 50 µl (0.5 mg /well) of SPA yttrium silicate beads (RPNQ 0150; GE Healthcare) in the presence of zinc sulfate. Plates were stored overnight in the dark and read on a TRILUX microtiter plate reader (Perkin Elmer).
Background: Scintillation proximity formats need no separation of bound from free tracer.

In the case of `CCn1nc(-c2cccc(-c3cc(F)ccc3O)c2)cc(NC(=O)Nc2c(Cl)cncc2Cl)c1=O` [Example 4, N-(3,5-Dichloropyridin-4-yl)-N'-[2-ethyl-6-(5'-fluoro-2'-hydroxybiphenyl-3-yl)-3-oxo-2,3-dihydropyridazin-4-yl]urea], the concentration for half-maximal inhibition (IC50) worked out at 0.237 nM.
Consider `CCn1nc(-c2cccc(-c3cccc(C(=O)NCCN(C)C)c3)c2)cc(NC(=O)Nc2c(Cl)cncc2Cl)c1=O` [Example 17, 3'-[5-({[(3,5-Dichloropyridin-4-yl)amino]carbonyl}amino)-1-ethyl-6-oxo-1,6-dihydropyridazin-3-yl]-N-[2-(dimethylamino)ethyl]biphenyl-3-carboxamide], for which the IC50 is 0.047 nM.
The result for `CCn1nc(-c2cccc(-c3cccc(C(=O)NC4CC4)c3)c2)cc(NC(=O)Nc2c(Cl)cncc2Cl)c1=O` [Example 21, N-Cyclopropyl-3'-[5-({[(3,5-dichloropyridin-4-yl)amino]carbonyl}amino)-1-ethyl-6-oxo-1,6-dihydropyridazin-3-yl]biphenyl-3-carboxamide] reads 0.127 nM; that for `CCn1nc(-c2cccc(-c3cccc(C(=O)NCCCN(C)C)c3)c2)cc(NC(=O)Nc2c(Cl)cncc2Cl)c1=O` [Example 22, 3'-[5-({[(3,5-Dichloropyridin-4-yl)amino]carbonyl}amino)-1-ethyl-6-oxo-1,6-dihydropyridazin-3-yl]-N-[3-(dimethylamino)propyl]biphenyl-3-carboxamide], 0.133 nM.
Take `CCn1nc(-c2cccc(-c3ccc(C(=O)O)cc3)c2)cc(NC(=O)Nc2c(Cl)cncc2Cl)c1=O` [Example 26, 3'-[5-({[(3,5-Dichloropyridin-4-yl)amino]carbonyl}amino)-1-ethyl-6-oxo-1,6-dihydropyridazin-3-yl]biphenyl-4-carboxylic acid]: the IC50 amounted to 0.098 nM.
In the case of `CCn1nc(-c2cccc(-c3cccc(C(=O)NCCN4CCCCC4)c3)c2)cc(NC(=O)Nc2c(Cl)cncc2Cl)c1=O` [Example 51, 3'-[5-({[(3,5-Dichloropyridin-4-yl)amino]carbonyl}amino)-1-ethyl-6-oxo-1,6-dihydropyridazin-3-yl]-N-(2-piperidin-1-ylethyl)biphenyl-3-carboxamide], the IC50 is 0.104 nM.
With `CCn1nc(-c2cccc(-c3ccc(CC(=O)NCCN4CCCCC4)cc3)c2)cc(NC(=O)Nc2c(Cl)cncc2Cl)c1=O` [Example 117, 2-(3'-(5-(3-(3,5-dichloropyridin-4-yl)ureido)-1-ethyl-6-oxo-1,6-dihydropyridazin-3-yl)biphenyl-4-yl)-N-(2-(piperidin-1-yl)ethyl)acetamide], the IC50 stood at 0.049 nM.
For `CCn1nc(-c2cccc(-c3cccc(CC(=O)NCCN4CCCCC4)c3)c2)cc(NC(=O)Nc2c(Cl)cncc2Cl)c1=O` [Example 118, 2-(3'-(5-(3-(3,5-dichloropyridin-4-yl)ureido)-1-ethyl-6-oxo-1,6-dihydropyridazin-3-yl)biphenyl-3-yl)-N-(2-(piperidin-1-yl)ethyl)acetamide], the IC50 was determined as 0.1 nM.
For the compound `CCn1nc(-c2cccc(-c3cccc(CC(=O)NCCN4CCOCC4)c3)c2)cc(NC(=O)Nc2c(Cl)cncc2Cl)c1=O` [Example 119, 2-(3'-(5-(3-(3,5-dichloropyridin-4-yl)ureido)-1-ethyl-6-oxo-1,6-dihydropyridazin-3-yl)biphenyl-3-yl)-N-(2-morpholinoethyl)acetamide], the IC50 stood at 0.061 nM.
Turning to `CCn1nc(-c2cccc(-c3cccc(C(=O)NCCCCCCCN(C)CCO)c3)c2)cc(NC(=O)Nc2c(Cl)cncc2Cl)c1=O` [Example 120, 3'-(5-(3-(3,5-dichloropyridin-4-yl)ureido)-1-ethyl-6-oxo-1,6-dihydropyridazin-3-yl)-N-(7-((2-hydroxyethyl)(methyl)amino)heptyl)biphenyl-3-carboxamide], the IC50 amounted to 0.031 nM.
In the case of `CCn1nc(-c2cccc(-c3ccc(CC(=O)NCCCCCCCN(C)CCO)cc3)c2)cc(NC(=O)Nc2c(Cl)cncc2Cl)c1=O` [Example 122, 2-(3'-(5-(3-(3,5-dichloropyridin-4-yl)ureido)-1-ethyl-6-oxo-1,6-dihydropyridazin-3-yl)biphenyl-4-yl)-N-(7-((2-hydroxyethyl)(methyl)amino)heptyl)acetamide], the half-inhibitory concentration (IC50) is 0.056 nM.
The result for `CCn1nc(-c2cccc(-c3cc(O)cc(C(=O)NCCCCCCCN(C)CCO)c3)c2)cc(NC(=O)Nc2c(Cl)cncc2Cl)c1=O` [Example 124, 3'-(5-(3-(3,5-dichloropyridin-4-yl)ureido)-1-ethyl-6-oxo-1,6-dihydropyridazin-3-yl)-5-hydroxy-N-(7-((2-hydroxyethyl)(methyl)amino)heptyl)biphenyl-3-carboxamide] reads 0.037 nM; that for `CCn1nc(-c2cccc(-c3cc(O)cc(C(=O)NC4CC4)c3)c2)cc(NC(=O)Nc2c(Cl)cncc2Cl)c1=O` [Example 126, N-cyclopropyl-3'-[5-({[(3,5-dichloropyridin-4-yl)amino]carbonyl}amino)-1-ethyl-6-oxo-1,6-dihydropyridazin-3-yl]-5-hydroxybiphenyl-3-carboxamide], 0.076 nM.
With `CCn1nc(-c2cccc(-c3cccc(CC(=O)NC4CC4)c3)c2)cc(NC(=O)Nc2c(Cl)cncc2Cl)c1=O` [Example 127, N-cyclopropyl-2-{3'-[5-({[(3,5-dichloropyridin-4-yl)amino]carbonyl}amino)-1-ethyl-6-oxo-1,6-dihydropyridazin-3-yl]biphenyl-3-yl}acetamide], the IC50 was found to be 0.173 nM.
With `CCn1nc(-c2cccc(-c3cccc(C(=O)NCc4ccc(O)cc4)c3)c2)cc(NC(=O)Nc2c(Cl)cncc2Cl)c1=O` [Example 138, 3'-[5-({[(3,5-dichloropyridin-4-yl)amino]carbonyl}amino)-1-ethyl-6-oxo-1,6-dihydropyridazin-3-yl]-N-(4-hydroxybenzyl)biphenyl-3-carboxamide], the IC50 stood at 0.391 nM.

By IC50 is commonly meant the concentration that gives 50% inhibition.
